In US7868026B2, “Therapeutic compounds” (Pfizer Inc., priority 2005, dated 2011):
pIC50, pKi: −log10 of the molar value. Read-outs that look alike come from different tables or passages of the source.

What was measured:
Type in all cases: biochemical
CYP3A4 [1] = target: T1, CYP3A4 (Homo sapiens, UniProt P08684); assay: Determination of IC50 against CYP3A4 by measurement of inhibition of testosterone metabolism (human liver microsomes, 6-β-OH-testosterone by LC-MS/MS); parameters: 0.1 mg/mL human liver microsomes; conditions: read-out: IC50 (Testo.)
Procedure: 2. Determination of IC50 Against CYP3A4 by Measurement of Inhibition of Testosterone Metabolism
(§1) This assay was performed using a standard 96 well plate design. […] The incubation substrate mix contains 25 μM testosterone, 0.1 mg/mL human liver microsomes, 1 mM NADPH, and potassium phosphate buffer (100 mM, pH 7.4). Quantitation of metabolite peak area ratio against an internal standard is determined by LC-MS/MS analysis. The production of 6-β-OH-testosterone from testosterone metabolism is determined after incubation for eight minutes by comparison to a standard curve generated for the metabolite
(§2) Samples were analyzed in the MRM mode using a Sciex API 3000 mass spectrometer (Applied Biosystems, Foster City, Calif.) with a Paradigm MS4 binary pump (Michrom BioResources Inc., Auburn, Calif.) and a LEAP CTC PAL autosampler (LEAP Technologies, Carrboro, N.C.). A Phenomenex Synergi, 4μ, Polar-RP, 10×2.0 mm column (Phenomenex, Torrance, Calif.) was used for separation with a mobile phase composition of: 0.1% formic acid in water (A) and: 0.1% formic acid in methanol (B). The following gradient was used: […]
(§3) The sample injection volume was 10 μL and flow was split post-column with 0.4 mL/min going to the mass spectrometer. Analysis was performed using the following API 3000 mass spectrometer settings: […]

CYP3A4 [2] = target: T1, CYP3A4; assay: Determination of IC50 against CYP3A4 by measurement of inhibition of midazolam metabolism (human liver microsomes, 1-hydroxymidazolam by LC-MS/MS); parameters: 0.1 mg/mL human liver microsomes; conditions: 2 μM midazolam, 0.1 mg/mL human liver microsomes
Procedure: 3. Determination of IC50 Against CYP3A4 by Measurement of Inhibition of Midazolam Metabolism
as §1, with “contains 2” for “contains 25”, “μM midazolam,” for “μM testosterone,”, “against” for “against an”, “of 1-hydroxymidazolam” for “of 6-β-OH-testosterone”, “from midazolam” for “from testosterone”, “the metabolite.” for “the metabolite”
as §2, §3

CYP3A4 [3] = target: T1, CYP3A4; assay: Determination of compound Kiapp against recombinant CYP3A4 enzyme (BFC fluorescent substrate)
Procedure: 1. Determination of compound Kiapp
A determination of the Kiapp of the compounds of the invention against recombinant CYP3A4 enzyme was performed as follows. The assay was performed in a 100 mM sodium phosphate buffer pH 7.0, 5 mM TCEP and containing 2% dimethylformamide (final concentration) upon addition of substrate and inhibitor. A typical reaction for the determination of Kiapp values was carried at room temperature in a solid black Costar u-bottom 96-well polypropylene plate. In each well, recombinant CYP3A4 enzyme (5.5 nM or 8 nM, final concentration depending on the commercial source of the enzyme) was pre-incubated in the presence of the inhibitor for at least 30 minutes in the assay buffer. When pre-incubation was completed (˜30 min), the reaction was initiated by adding NADPH (200 uM, final concentration), and 7-benzyloxy-4-(trifluoromethyl)-coumarin (BFC) (5 uM, final concentration). The oxidation of the coumarin substrate was recorded by a 96-well plate reader POLARstar (BMG LABTECH, Offenburg, Germany).
The initial reaction velocities were measured during the first 5 min of the reaction when the release of the fluorescent product is linear with time, in the absence and in the presence of various concentrations of inhibitors. For non-partial & partial inhibitors, the Kiapp values were determined by using the equation for tight-binding inhibitor developed by Morrison, J F (Morrison J F. Biochim Biophys Acta. 1969, 185: 269-86) and by Szedlaseck S E et al. (Szedlascek, S. E., Ostafe, V., Serban, M., and Vlad, M.O. Biochem. J. 1988, 254:311-312), respectively.
The fluorescent substrate BFC was purchased from Sigma (St Louis, Mo.). Two commercial sources of recombinant enzymes were used in this study: recombinant CYP3A4−b5 enzyme (Baculosomes®) was purchased from Invitrogen (Carlsbad, Calif.) and the recombinant CYP3A4+b5 enzyme (Supersomes®) was purchased from BD Biosciences (Woburn, Mass.).

[4] = Baculo. enzyme preparation, read-out: Kiapp (BFC, Baculo.)
[5] = Super. enzyme preparation, read-out: Kiapp (BFC, Super.)

T1 sequence (P08684 whole entry): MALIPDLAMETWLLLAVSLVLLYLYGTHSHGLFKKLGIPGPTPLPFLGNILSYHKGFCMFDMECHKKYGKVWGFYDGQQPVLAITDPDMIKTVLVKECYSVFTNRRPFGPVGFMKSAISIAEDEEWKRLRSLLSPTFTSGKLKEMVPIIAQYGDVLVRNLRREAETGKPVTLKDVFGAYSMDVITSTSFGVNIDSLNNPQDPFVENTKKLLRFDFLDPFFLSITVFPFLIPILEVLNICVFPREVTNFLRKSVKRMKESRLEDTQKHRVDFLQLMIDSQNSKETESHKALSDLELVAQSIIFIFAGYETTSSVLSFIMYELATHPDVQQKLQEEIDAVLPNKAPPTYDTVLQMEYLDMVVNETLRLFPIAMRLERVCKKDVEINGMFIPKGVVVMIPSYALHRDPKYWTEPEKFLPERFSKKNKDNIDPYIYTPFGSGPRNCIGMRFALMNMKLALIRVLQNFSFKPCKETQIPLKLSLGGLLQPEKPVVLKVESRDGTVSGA

| pIC50 (CYP3A4 [1]) | pIC50 (CYP3A4 [2]) | pKi (CYP3A4 [3]; [4]) | pKi (CYP3A4 [3]; [5]) | SMILES |
| --- | --- | --- | --- | --- |
| 6.96 | 6.95 | 6.34 | 6.86 | CCCCNC(=O)c1ccccc1S(=O)(=O)N(C)c1cccnc1 [Example 351, N-butyl-2-{[methyl(pyridin-3-yl)amino]sulfonyl}benzamide] |
| 7.18 | 7.51 | 6.88 | 7.92 | CCCCCN(C)C(=O)c1ccccc1S(=O)(=O)Nc1cnccc1OC [Example 278, 2-{[(4-methoxypyridin-3-yl)amino]sulfonyl}-N-methyl-N-pentylbenzamide] |
| 7.80 | 8.40 | 7.84 | 8.40 | CCOc1cncc(NS(=O)(=O)c2ccccc2C(=O)NCc2ccc(F)c(F)c2)c1 [Example 290, N-(3,4-difluorobenzyl)-2-{[(5-ethoxypyridin-3-yl)amino]sulfonyl}benzamide] |
| 7.24 | 7.59 | 7.46 | 8.01 | COc1cncc(NS(=O)(=O)c2ccc(OC3CCNCC3)cc2C(=O)NCc2ccc(F)cc2)c1 [Example 264, N-(4-fluorobenzyl)-2-{[(5-methoxypyridin-3-yl)amino]sulfonyl}-5-(piperidin-4-yloxy)benzamide] |
| 8.10 | 8.22 | 8.00 | 7.55 | Cc1cncc(NS(=O)(=O)c2ccccc2C(=O)NCc2ccc(F)c(F)c2)c1 [Example 320, N-(3,4-difluorobenzyl)-2-{[(5-methylpyridin-3-yl)amino]sulfonyl}benzamide] |
| 6.76 | 7.12 | 6.49 |  | CC1(C)CCCN(C(=O)c2ccccc2S(=O)(=O)Nc2cccnc2)C1 [Example 29, 2-[(3,3-dimethylpiperidin-1-yl)carbonyl]-N-pyridin-3-ylbenzenesulfonamide] |
| 7.24 | 7.60 | 6.67 | 7.36 | COc1cncc(NS(=O)(=O)c2ccccc2C(=O)NC2CC3CCC2C3)c1 (stereo not drawn) [Example 215, N-bicyclo[2.2.1]hept-2-yl-2-{[(5-methoxypyridin-3-yl)amino]sulfonyl}benzamide] |
| 6.75 | 6.98 | < 6.00 |  | O=C(NCCCc1ccccn1)c1ccccc1S(=O)(=O)Nc1cccnc1 [Example 69, 2-[(pyridin-3-ylamino)sulfonyl]-N-(3-pyridin-2-ylpropyl)benzamide] |
| 7.19 | 7.28 | 6.34 | 7.32 | COc1ccncc1NS(=O)(=O)c1ccccc1C(=O)NCCC(C)C [Example 277, 2-{[(4-methoxypyridin-3-yl)amino]sulfonyl}-N-(3-methylbutyl)benzamide] |
| 7.96 | 8.22 | 7.86 | 8.04 | COc1ccncc1NS(=O)(=O)c1ccccc1C(=O)NCCc1ccccc1Cl [Example 220, N-[2-(2-chlorophenyl)ethyl]-2-{[(4-methoxypyridin-3-yl)amino]sulfonyl}benzamide] |
| 8.05 | 8.15 | 7.80 | 8.77 | Cc1cncc(NS(=O)(=O)c2ccccc2C(=O)NCCc2ccccc2OC(F)(F)F)c1 [Example 225, 2-{[(5-methylpyridin-3-yl)amino]sulfonyl}-N-{2-[2-(trifluoromethoxy)phenyl]ethyl}benzamide] |
| 6.37 | 6.83 | 6.09 | 6.84 | COc1cncc(NS(=O)(=O)c2ccc(Cl)cc2C(=O)N(C)C(C)C)c1 [Example 309, 5-chloro-N-isopropyl-2-{[(5-methoxypyridin-3-yl)amino]sulfonyl}-N-methylbenzamide] |
| 7.64 | 8.22 | 7.94 | 8.49 | Cc1cncc(NS(=O)(=O)c2ccccc2C(=O)N(C)CCc2ccccc2C)c1 [Example 154, N-methyl-N-[2-(2-methylphenyl)ethyl]-2-{[(5-methylpyridin-3-yl)amino]sulfonyl}benzamide] |
| 7.39 | 7.64 | 7.53 | 7.90 | COc1cncc(NS(=O)(=O)c2ccc(OCCN3CCOCC3)cc2C(=O)NCc2ccc(F)cc2)c1 [Example 265, N-(4-fluorobenzyl)-2-{[(5-methoxypyridin-3-yl)amino]sulfonyl}-5-(2-morpholin-4-ylethoxy)benzamide] |
| < 6.12 | < 6.12 | < 6.00 | 6.76 | COc1cncc(NS(=O)(=O)c2ccccc2C(=O)NCCN2CCCC2)c1 [Example 386, 2-{[(5-methoxypyridin-3-yl)amino]sulfonyl}-N-(2-pyrrolidin-1-ylethyl)benzamide] |
| 7.47 | 7.82 | 6.68 | 7.90 | COc1ccncc1NS(=O)(=O)c1ccccc1C(=O)NCCc1ccccc1F [Example 222] |
| < 6.12 | 6.38 |  |  | CC(C)(CNC(=O)c1ccccc1S(=O)(=O)Nc1cccnc1)N1CCOCC1 [Example 32, N-(2-methyl-2-morpholin-4-ylpropyl)-2-[(pyridin-3-ylamino)sulfonyl]benzamide] |
| 7.62 |  | 6.60 |  | O=C(c1ccccc1S(=O)(=O)Nc1cccnc1)N1CCN(c2ccc(F)cc2)CC1 [Example 13, 2-{[4-(4-fluorophenyl)piperazin-1-yl]carbonyl}-N-pyridin-3-ylbenzenesulfonamide] |
| 6.38 |  | 6.10 |  | CC(C)(CN1CCOCC1)NC(=O)c1ccccc1[S+]([O-])Cc1cccnc1 (stereo not drawn) [Example 70, N-(1,1-dimethyl-2-morpholin-4-ylethyl)-2-[(pyridin-3-ylmethyl)sulfinyl]benzamide] |
| 7.22 |  | 6.30 |  | CC(C)(C)NC(=O)c1ccccc1S(=O)(=O)Nc1cccnc1 [Example 14, N-(tert-butyl)-2-[(pyridin-3-ylamino)sulfonyl]benzamide] |
|  | 7.85 | 7.16 | 8.06 | COc1cncc(NS(=O)(=O)c2ccccc2C(=O)NCCc2ccc(C(F)(F)F)c(F)c2)c1 [Example 134, N-{2-[3-fluoro-(trifluoromethyl)phenyl]ethyl}-2-{[(5-methoxypyridin-3-yl)amino]sulfonyl}benzamide] |
|  | 7.05 | 6.16 | 7.01 | CCC(C)NC(=O)c1ccccc1S(=O)(=O)Nc1cncc(N)c1 (stereo not drawn) [Example 113, 2-{[(5-aminopyridin-3-yl)amino]sulfonyl}-N-(sec-butyl)benzamide] |
|  | 8.10 | 7.39 | 8.08 | COc1cncc(NS(=O)(=O)c2ccccc2C(=O)NCc2ccc(Cl)c(F)c2)c1 [Example 132, N-(4-chloro-3-fluorobenzyl)-2-{[(5-methoxypyridin-3-yl)amino]sulfonyl}benzamide] |

| SMILES | pIC50 (CYP3A4 [1]) | pIC50 (CYP3A4 [2]) | pKi (CYP3A4 [3]; [4]) | pKi (CYP3A4 [3]; [5]) |
| --- | --- | --- | --- | --- |
| CCCCOCCCNC(=O)c1ccccc1S(=O)(=O)Nc1cccnc1 [Example 59, N-(3-butoxypropyl)-2-[(pyridin-3-ylamino)sulfonyl]benzamide] | 6.93 | 6.96 | 6.08 | 7.24 |
| CCOc1ccccc1CNC(=O)c1ccccc1S(=O)(=O)Nc1cccnc1 [Example 72, N-(2-ethoxybenzyl)-2-[(pyridin-3-ylamino)sulfonyl]benzamide] | > 8.52 | 7.57 | 6.79 | 7.89 |
